We go through one molecule from patent publication US12329930B2, “Subarachnoid fluid management method and system” (EnClear Therapies, Inc., priority 2020, dated 2025).

This series is described as follows: Administration of methotrexate to a sheep via the CSF circuit; drug concentration measured with LC/MS in CSF, spinal cord and brain regions. It counts as in vivo. As for the experimental part:
The inventors administered methotrexate to sheep using illustrative embodiments. An outline of the study is depicted by FIGS. 16A-16C. A sheep used for this experiment received the CSF circuit 10 of illustrative embodiments. Circulation was started at the same time that methotrexate was infused. Methotrexate was infused at a gradual rate of 2 mLs over 2 minutes and then recirculation from lumbar to ventricle was started at a rate of 0.2 mLs/min. Circulation continued after drug infusion was stopped for […]. At zero to three hours, the circulation rate was at 0.1 mL/min and from four to six hours, circulation was at 0.3 mL/min. The dose of methotrexate infused was 12 mg. Drug concentration was measured with LC/MS (liquid chromatography with the mass analysis capabilities of mass spectrometry) in the CSF, spinal cord, and multiple brain regions.
CSF levels of methotrexate were analyzed over time.
The x-axis of this graph is […].

Regarding `CN(Cc1cnc2nc(N)nc(N)c2n1)c1ccc(C(=O)N[C@@H](CCC(=O)O)C(=O)O)cc1` [methotrexate], where the note is “12 mg infused 2 mLs over 2 minutes, lumbar region where drug was infused, lumbar to ventricle circulation, LC/MS”, the “CSF levels of methotrexate, lumbar region” value is reported as “very high”. Besides, the “CSF levels of methotrexate over time, lumbar region” value (12 mg, lumbar CSF samples, time course, LC/MS) was “a decline over time was measured except for an increase at 5 hours and then a subsequent decline”. Also, the “methotrexate levels in brain and spinal cord tissue” value (12 mg, samples from twelve brain regions homogenized, all areas of the brain and spinal cord) was “good levels”. Besides, the “CSF levels of methotrexate, ventricular samples, initially” value (12 mg, ventricular CSF samples, initial time points, LC/MS) was “very low”. The “CSF levels of methotrexate over time, ventricular samples” value (12 mg, ventricular CSF samples, later time points, LC/MS) was “increased at 4 and 5 hours, before declining to a similar level as the lumbar samples”.
